Results from the supplement of paper PMC7661543.
± gives the standard deviation of the averaged measurements.

What was measured:
Experiment in all cases: relative cell number vs DMSO control (72 h) (% of DMSO); higher = less growth inhibition (more cells)
Settings in all cases: sgRNA knockout: sgNT
MDA-MB-231 = tested on: MDA-MB-231
Method: (§1)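 QMAP-Seq: a pool of 5 breast cancer cell lines (ZR-75-1, SKBR3, HCC-38, MDA-MB-231, BT-20), each carrying 12 doxycycline-inducible Cas9 sgRNA perturbations (11 knockouts plus non-targeting sgNT), was treated with compounds for 72 h at four 10-fold doses (10 nM-10 uM or 1 nM-1 uM range). Barcodes were amplified and sequenced, and cell number was interpolated from 293T spike-in standard curves. The result is expressed as % of the median of DMSO wells. Two biological replicates.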

SKBR3 = tested on: SKBR3
Method: as §1

HCC-38 = tested on: HCC-38
Method: as §1

ZR-75-1 = tested on: ZR-75-1
Method: as §1

BT-20 = tested on: BT-20
Method: as §1

SMILES | relative cell number (MDA-MB-231; 10 nM) | relative cell number (MDA-MB-231; 100 nM) | relative cell number (MDA-MB-231; 1000 nM) | relative cell number (MDA-MB-231; 10000 nM) | relative cell number (SKBR3; 10 nM) | relative cell number (SKBR3; 100 nM) | relative cell number (SKBR3; 1000 nM) | relative cell number (SKBR3; 10000 nM) | relative cell number (HCC-38; 10 nM) | relative cell number (HCC-38; 100 nM) | relative cell number (HCC-38; 1000 nM) | relative cell number (HCC-38; 10000 nM) | relative cell number (ZR-75-1; 10 nM) | relative cell number (ZR-75-1; 100 nM) | relative cell number (ZR-75-1; 1000 nM) | relative cell number (ZR-75-1; 10000 nM) | relative cell number (BT-20; 10 nM) | relative cell number (BT-20; 100 nM) | relative cell number (BT-20; 1000 nM) | relative cell number (BT-20; 10000 nM) | relative cell number (MDA-MB-231; 1 nM) | relative cell number (SKBR3; 1 nM) | relative cell number (HCC-38; 1 nM) | relative cell number (ZR-75-1; 1 nM) | relative cell number (BT-20; 1 nM)
C=CC(=O)Nc1cc2c(Nc3ccc(F)c(Cl)c3)ncnc2cc1OCCCN1CCOCC1 [Canertinib] | 87.7 ± 26 | 60.8 ± 6.4 | 78.7 ± 21 | 9.74 ± 5.8 | 81.6 ± 12 | 56.6 ± 18 | 39.1 ± 14 | 16.3 ± 0.86 | 97 ± 19 | 110 ± 9.9 | 87 ± 12 | 9.97 ± 5 | 117 ± 23 | 113 ± 22 | 63.6 ± 13 | 41.2 ± 9.9 | 69.3 ± 4.2 | 59.3 ± 7.5 | 75.3 ± 11 | 41.5 ± 21 | – | – | – | – | –
CC(C)C[C@H](NC(=O)[C@H](CCc1ccccc1)NC(=O)CN1CCOCC1)C(=O)N[C@@H](Cc1ccccc1)C(=O)N[C@@H](CC(C)C)C(=O)[C@@]1(C)CO1 [Carfilzomib] | 91 ± 32 | 37.8 ± 22 | 18.7 ± 5.8 | – | 33.5 ± 8.4 | 11.2 ± 8.9 | 7.64 ± 5.5 | – | 31.4 ± 4.7 | 8.48 ± 4 | 4.65 ± 0.23 | – | 89.9 ± 9.1 | 22.8 ± 13 | 7.73 ± 3.8 | – | 80.32 ± 0.3 | 21.4 ± 4.5 | 14.6 ± 1.8 | – | 83.2 ± 3.2 | 58.5 ± 9.1 | 76.3 ± 6.3 | 73.3 ± 12 | 80.9 ± 18
COc1cc2c(Oc3ccc4[nH]c(C)cc4c3F)ncnc2cc1OCCCN1CCCC1 [Cediranib] | 91.3 ± 3.8 | 114 ± 20 | 104 ± 33 | 15.9 ± 2.8 | 103 ± 25 | 85.8 ± 14 | 113 ± 29 | 11.1 ± 1.2 | 108 ± 8.3 | 100 ± 1.8 | 59.3 ± 0.64 | 9.73 ± 0.54 | 113 ± 5.5 | 87.5 ± 7.5 | 86.3 ± 5.5 | 10.9 ± 2.5 | 104 ± 8.7 | 100 ± 29 | 104 ± 9 | 27.9 ± 8.5 | – | – | – | – | –
O=C(O)CCCc1ccc(N(CCCl)CCCl)cc1 [Chlorambucil] | 99.2 ± 7.3 | 94.9 ± 9.4 | 91 ± 18 | 63.5 ± 24 | 107 ± 1.5 | 74.5 ± 4.3 | 82.17 ± 0.55 | 64.2 ± 2.1 | 90.4 ± 5.5 | 98.6 ± 12 | 96 ± 3.8 | 67.5 ± 2.6 | 81.3 ± 21 | 83.3 ± 26 | 78 ± 34 | 86.17 ± 0.75 | 100 ± 3 | 72.6 ± 16 | 93.2 ± 18 | 81.2 ± 22 | – | – | – | – | –
Cc1cc(C2CCCCC2)n(O)c(=O)c1 [Ciclopirox] | 112 ± 16 | 125 ± 41 | 49.1 ± 5.4 | 20.4 ± 5.6 | 105 ± 24 | 83.3 ± 22 | 86.9 ± 17 | 17.3 ± 9.5 | 88.3 ± 8.2 | 93.6 ± 11 | 77.4 ± 3.9 | 13.6 ± 2.9 | 112 ± 34 | 93.9 ± 19 | 41.4 ± 1.6 | 18.3 ± 1.6 | 96.4 ± 11 | 95.2 ± 19 | 65.7 ± 2.8 | 25.2 ± 7.7 | – | – | – | – | –
CN/C(=N\CCSCc1nc[nH]c1C)NC#N [Cimetidine] | 103 ± 22 | 106 ± 46 | 95.5 ± 9.1 | 92.2 ± 9.2 | 78.8 ± 35 | 141 ± 62 | 107.1 ± 0.53 | 110 ± 13 | 101 ± 16 | 97.2 ± 9.8 | 88.8 ± 11 | 101 ± 7.5 | 103 ± 4.7 | 121 ± 47 | 101 ± 17 | 133 ± 39 | 111 ± 2.3 | 108 ± 20 | 100 ± 8.2 | 106 ± 15 | – | – | – | – | –
N.N.[Cl][Pt][Cl] [Cisplatin] | 95 ± 3.3 | 87.8 ± 8.9 | 99.8 ± 51 | 116 ± 20 | 97.5 ± 2.7 | 84.6 ± 5.9 | 81.5 ± 8.8 | 110 ± 3.5 | 114 ± 20 | 79.6 ± 12 | 115 ± 13 | 93.4 ± 8.6 | 89.8 ± 18 | 88.2 ± 45 | 89.7 ± 35 | 74.5 ± 27 | 100 ± 7.4 | 80.4 ± 4.7 | 111 ± 5.1 | 89 ± 2.7 | – | – | – | – | –
Nc1nc(Cl)nc2c1ncn2[C@@H]1O[C@H](CO)[C@@H](O)[C@@H]1F [Clofarabine] | 82.8 ± 26 | 30 ± 7.7 | 12 ± 1.1 | 22.7 ± 0.75 | 65.5 ± 37 | 45.5 ± 1.9 | 10.2 ± 1.7 | 8.24 ± 1.4 | 98.6 ± 18 | 25.9 ± 0.79 | 12.6 ± 1.4 | 12.4 ± 6.4 | 72.7 ± 31 | 63.6 ± 9.1 | 22.1 ± 3.6 | 25.4 ± 15 | 103 ± 44 | 73.9 ± 4.4 | 27 ± 2.8 | 26.5 ± 1.5 | – | – | – | – | –
C[C@@H](Oc1cc(-c2cnn(C3CCNCC3)c2)cnc1N)c1c(Cl)ccc(F)c1Cl [Crizotinib] | 89.5 ± 29 | 88.8 ± 15 | 54 ± 14 | 8.63 ± 0.23 | 92.7 ± 20 | 98.4 ± 12 | 88.6 ± 8.4 | 37.4 ± 27 | 91.2 ± 15 | 85.708 ± 0.047 | 86.8 ± 2.8 | 25.9 ± 4.9 | 75.6 ± 19 | 116 ± 13 | 34.1 ± 13 | 14.6 ± 0.35 | 83.9 ± 22 | 100.3 ± 0.25 | 75.5 ± 12 | 44.2 ± 4.7 | – | – | – | – | –
COc1cc(/C=C/C(=O)CC(=O)/C=C/c2ccc(O)c(OC)c2)ccc1O [Curcumin] | 91.8 ± 29 | 136 ± 59 | 88.6 ± 8.1 | 61.55 ± 0.48 | 106 ± 29 | 82.86 ± 0.028 | 111 ± 7.2 | 66.7 ± 0.98 | 100 ± 14 | 97.5 ± 7 | 95.5 ± 7.2 | 85.5 ± 21 | 73.8 ± 1.7 | 84.5 ± 52 | 112 ± 46 | 72.5 ± 0.98 | 116 ± 7.8 | 107 ± 32 | 95.9 ± 6.5 | 95.3 ± 16 | – | – | – | – | –
O=P1(N(CCCl)CCCl)NCCCO1 (stereo not given) [Cyclophosphamide] | 96.1 ± 29 | 134 ± 22 | 74 ± 11 | 136 ± 10 | 88.4 ± 22 | 86.2 ± 26 | 102 ± 19 | 93.3 ± 7.1 | 89.7 ± 13 | 86.8 ± 5.3 | 93.6 ± 5.8 | 94.7 ± 8.6 | 83.2 ± 52 | 111 ± 50 | 81.3 ± 37 | 89 ± 21 | 81.2 ± 1.5 | 114 ± 0.31 | 107 ± 5.6 | 114 ± 8.3 | – | – | – | – | –
CC(C)(C)c1nc(-c2cccc(NS(=O)(=O)c3c(F)cccc3F)c2F)c(-c2ccnc(N)n2)s1 [Dabrafenib] | 106 ± 7.5 | 137 ± 23 | 91.8 ± 27 | 115 ± 10 | 133 ± 3.3 | 121 ± 1.7 | 96.5 ± 9.5 | 104 ± 14 | 141 ± 32 | 96.9 ± 5.1 | 93.8 ± 4.2 | 94.7 ± 7.9 | 129 ± 31 | 128 ± 3.2 | 119 ± 46 | 76.8 ± 7.1 | 134 ± 10 | 116 ± 16 | 109 ± 12 | 112 ± 1.6 | – | – | – | – | –
